Measurements reported in patent publication US20150275306A1, “METHODS AND MEANS FOR PREDICTING RESISTANCE TO ANTI-CANCER TREATMENT” (Stichting Het Nederlands Kanker Instituut Antoni van …, priority 2012, published 2015).

What was measured:
[1] = system: H3122 cells; test: Long-term cell proliferation (colony formation) assay in H3122; assay type: cell-based; settings: for effect of MED12 knockdown on response to chemotherapy drugs, H3122: shMED12 #4 and #5, 2 μM cisplatin or 2.5 μM 5-FU, 18 days; for effect of MED12 knockdown on response to ALK inhibitors, H3122: shMED12 #1-3, 300 nM crizotinib or 2.5 nM NVP-TAE684; for effect of recombinant TGFbeta treatment on drug response, H3122: TGFbeta-dosage dependent, crizotinib, cisplatin 2 μM
Procedure: (§1) H3122, PC9, H3255, SK-CO-1 and SW1417 cells were cultured in RPMI with 8% heat inactivated fetal bovine serum, penicillin and streptomycin at 5% CO2. HEK 293T, Phoenix and A375, SK-MEL-28 and Huh-7 cells were cultured in DMEM with 8% heat-inactivated fetal bovine serum, penicillin and streptomycin at 5% CO2. Subclones of each cell line expressing the murine ecotropic receptor were generated and used for all experiments shown. Phoenix cells were used as producers of retroviral supernatants as described at www.stanford.edu/group/nolan/retroviral_systems/phx.html. HEK 293T cells were used as producers of lentiviral supernatants as described at www.broadinstitute.org/rnai/public/resources/protocols. The calcium phosphate method was used for the transfection of Phoenix and 293T cells. Infected cells were selected for successful retroviral integration using 2 μg/ml of puromycin.
(§2) For long-term cell proliferation assays, cells were seeded into 6-well plates (2-5×10E4 cells/well) and cultured both in the absence and presence of drugs as indicated. More details are described (Huang et al., 2009. Cancer Cell 15: 328-340). All knockdown and overexpression experiments were done by retroviral or lentiviral infection. All relevant assays were performed independently at least three times.

[2] = system: SK-CO-1 colorectal cancer cells (KRASV12); test: Long-term cell proliferation (colony formation) assay in SK-CO-1; assay type: cell-based
Procedure: as §1, §2

[3] = biological target: TGFbeta receptor Type II (Homo sapiens, UniProt P37173); settings: cited from earlier work
Chain of TGFbeta receptor Type II (P37173 23-567, species assumed): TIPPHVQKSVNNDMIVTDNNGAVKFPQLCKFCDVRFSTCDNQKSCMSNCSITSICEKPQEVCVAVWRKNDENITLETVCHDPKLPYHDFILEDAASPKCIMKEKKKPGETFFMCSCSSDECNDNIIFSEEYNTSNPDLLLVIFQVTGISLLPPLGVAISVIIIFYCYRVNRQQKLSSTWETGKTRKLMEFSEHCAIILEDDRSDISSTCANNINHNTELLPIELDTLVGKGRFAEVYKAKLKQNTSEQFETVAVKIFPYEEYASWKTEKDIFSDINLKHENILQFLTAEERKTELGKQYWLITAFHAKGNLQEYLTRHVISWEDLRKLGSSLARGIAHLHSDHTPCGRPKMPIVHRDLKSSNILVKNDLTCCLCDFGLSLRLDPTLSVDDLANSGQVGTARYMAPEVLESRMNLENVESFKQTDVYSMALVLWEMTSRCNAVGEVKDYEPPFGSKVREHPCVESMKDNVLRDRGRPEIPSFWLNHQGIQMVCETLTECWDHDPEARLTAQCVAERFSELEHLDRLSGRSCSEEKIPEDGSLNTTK

[4] = system: H3122 cells; settings: parental H3122, EML4-ALK translocation; McDermott et al., 2008; cited from earlier work
[5] = system: PC9 cells; test: Long-term cell proliferation (colony formation) assay in PC9; assay type: cell-based; settings: for effect of recombinant TGFbeta treatment on drug response, PC9: TGFbeta-dosage dependent, gefitinib 50 nM, cisplatin 0.7 μM
Procedure: (§3) H3122, PC9, H3255, SK-CO-1 and SW1417 cells were cultured in RPMI with 8% heat inactivated fetal bovine serum, penicillin and streptomycin at 5% CO2. […] Subclones of each cell line expressing the murine ecotropic receptor were generated and used for all experiments shown. Phoenix cells were used as producers of retroviral supernatants as described at www.stanford.edu/group/nolan/retroviral_systems/phx.html. […] Infected cells were selected for successful retroviral integration using 2 μg/ml of puromycin.
as §2, with “More details are described (Huang et al., 2009. Cancer Cell 15: 328-340).” left out

[6] = system: H3255 cells; assay type: cell-based
Procedure: as §3
as §2, with “More details are described (Huang et al., 2009. Cancer Cell 15: 328-340).” left out

[7] = system: Huh-7 HCC cells; test: Long-term cell proliferation (colony formation) assay in Huh-7; assay type: cell-based
Procedure: as §1, §2

[8] = system: A375 melanoma cells (BRAFV600E); test: Long-term cell proliferation (colony formation) assay in A375; assay type: cell-based; settings: without targeted cancer drugs
Procedure: as §3
as §2, with “More details are described (Huang et al., 2009. Cancer Cell 15: 328-340).” left out

[9] = system: MEK/ERK activation in H3122 cells; test: Western blotting of MEK/ERK activation in H3122; assay type: cell-based; settings: data not shown
Description: (§4) Antibody against MED12 (A300-774A) and MED13 (A301-278A) was from Bethyl Laboratories; antibodies against Vimentin (RV202) and N-cadherin (ab18203) were from Abcam; antibody against p-SMAD2 (Ser465/467, #3101), SMAD2 (L16D3, #3103), pMEK1/2 (S217/221, #9121) and MEK1/2 (L38C12, #4694) were from Cell Signaling; anti-Flag M2 (F1804) was from Sigma; antibodies against HSP90 (H-114), p-ERK (E-4), ERK1 (C-16), ERK2 (C-14), CDK8 (D-9), Lamin A/C (636), SP1 (PEP2), alpha-TUBULIN (H-183), TGFbeta R2 (C-16), CDK8 (D9) and normal rabbit IgG control were from Santa Cruz Biotechnology; A mixture of ERK1 and ERK2 antibodies was used for detection of total ERK; 12CA5 hybridoma supernatant was also used to detect HA tagged-TGFbeta R2.

[10] = system: MEK/ERK activation in PC9 cells; test: Western blotting of MEK/ERK activation in PC9; assay type: cell-based
Description: as §4

[11] = system: MEK/ERK activation in H3255 cells; test: Western blotting of MEK/ERK activation in H3255; assay type: cell-based
Description: as §4

[12] = system: Vimentin, N-cadherin and p-ERK in Huh7 cells; test: Western blotting of mesenchymal markers and p-ERK in Huh7; assay type: cell-based; settings: 50 picoM of TGFbeta for 6 days
Description: as §4

## O=c1[nH]cc(F)c(=O)[nH]1 [5-FU, 5-Fluorouracil]
[1]
  effect of MED12 knockdown on response to chemotherapy drugs, H3122: confers resistance

## Cn1cnc2c(F)c(Nc3ccc(Br)cc3Cl)c(C(=O)NOCCO)cc21 [AZD6244, seluteminib]
[2]; 0.5 μM AZD6244, 28 days
  effect of MED12 knockdown on response to MEK inhibitor, SK-CO-1: conferred resistance
[2]; TGFbeta-dosage dependent, AZD6244 0.5 μM
  effect of recombinant TGFbeta treatment on drug response, SK-CO-1: leads to resistance
[2]; parental cells
  sensitivity of SK-CO-1 cells: highly sensitive

## Cc1cccc(-c2nn3c(c2-c2ccnc4ccc(C(N)=O)cc24)CCC3)n1 [LY2157299, 4-(2-(6-methylpyridin-2-yl)-5,6-dihydro-4H-pyrrolo[1,2-b]pyrazol-3-yl)quinoline-6-carboxamide]
[1]; 1 μM LY2157299 alone, 14 days
  proliferation of control and MED12KD H3122 cells, monotherapy: little effect
[3]
  IC50: 2 nM

## COc1cc(N2CCC(N3CCN(C)CC3)CC2)ccc1Nc1ncc(Cl)c(Nc2ccccc2S(=O)(=O)C(C)C)n1 [NVP-TAE684]
[1]; 28 days
  effect of MED12 knockdown on response to ALK inhibitors, H3122: conferred resistance
[4]
  sensitivity of H3122 cells to selective ALK inhibitors: exquisitely sensitive

## N.N.[Cl][Pt][Cl] [cisplatin]
[1]
  effect of recombinant TGFbeta treatment on drug response, H3122: leads to resistance
  effect of MED12 knockdown on response to chemotherapy drugs, H3122: confers resistance
[5]
  effect of recombinant TGFbeta treatment on drug response, PC9: leads to resistance
[5]; shMED12 #4 and #5, 0.37 or 1.1 μM cisplatin, 21 days
  effect of MED12 knockdown on response to cisplatin, PC9: confers resistance

## C[C@@H](Oc1cc(-c2cnn(C3CCNCC3)c2)cnc1N)c1c(Cl)ccc(F)c1Cl [crizotinib]
[1]
  effect of recombinant TGFbeta treatment on drug response, H3122: leads to resistance
[1]; pRS control cells, 300 nM crizotinib alone, 28 days
  proliferation of control H3122 cells: potently inhibited the proliferation
[1]; 28 days
  effect of MED12 knockdown on response to ALK inhibitors, H3122: conferred resistance
[4]
  sensitivity of H3122 cells to selective ALK inhibitors: exquisitely sensitive

## C#Cc1cccc(Nc2ncnc3cc(OCCOC)c(OCCOC)cc23)c1 [erlotinib]
[5]
  effect of MED12 knockdown on response to EGFR inhibitors, PC9: conferred resistance
[6]
  effect of MED12 knockdown on response to EGFR inhibitors, H3255: conferred resistance

## COc1cc2ncnc(Nc3ccc(F)c(Cl)c3)c2cc1OCCCN1CCOCC1 [gefitinib]
[5]
  effect of recombinant TGFbeta treatment on drug response, PC9: leads to resistance

## CNC(=O)c1cc(Oc2ccc(NC(=O)Nc3ccc(Cl)c(C(F)(F)F)c3)cc2)ccn1 [sorafenib]
[7]; 2 μM sorafenib, 21 days
  effect of MED12 knockdown on response to sorafenib, Huh-7: became resistant

## recombinant TGFbeta: Recombinant hTGFbeta 1 (240-B/CF) purchased from R&D systems
[8]
  proliferation of A375 cells, TGFbeta alone: growth inhibition
[7]; without targeted cancer drugs, data not shown
  proliferation of Huh-7 cells, TGFbeta alone: growth inhibition
[9]
  MEK/ERK activation in H3122 cells: caused MEK/ERK activation
[10]
  MEK/ERK activation in PC9 cells: caused MEK/ERK activation
[11]
  MEK/ERK activation in H3255 cells: caused MEK/ERK activation
[12]
  levels of Vimentin, N-cadherin and p-ERK in Huh7 cells: increased levels of Vimentin, N-cadherin and p-ERK
